Laboratory results reported in patent US9981940B2, “Aryl sulfide derivatives and aryl sulfoxide derivatives as acaricides and insecticides” (BAYER CROPSCIENCE AKTIENGESELLSCHAFT, priority 2013, dated 2018).

Tests used:
[1] = log P by HPLC (OECD Guideline 117), method [a] acidic range; assay type: physicochemical; settings: for logP[a]: HPLC, method [a] acidic range; for chromatographic logP: reversed-phase C18 HPLC column, acidic range
Procedure: (§1) The log P values were determined analogously to OECD Guideline 117 (EC Directive 92/69/EEC) by HPLC (high-performance liquid chromatography) using reversed-phase columns (C 18), by the following methods:
[a] The LC-MS determination in the acidic range is effected at pH 2.7 with 0.1% aqueous formic acid and acetonitrile (contains 0.1% formic acid) as eluents; linear gradient from 10% acetonitrile to 95% acetonitrile.

Tetranychus urticae = Tetranychus urticae spray test, OP-resistant (TETRUR); assay type: in vivo; settings: after 6 days; for pest or weed control at 500 g/ha: Tetranychus urticae, 144 h, read-out: efficacy
Outline: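 Mortality as % efficacy (0% = no mites killed) read 6 days after spraying. Formulation: active ingredient in acetone/dimethylformamide plus emulsifier, diluted with emulsifier-containing water, applied to Phaseolus vulgaris leaf discs carrying every life stage of OP-resistant spider mites.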

[2] = log P by HPLC (OECD Guideline 117), method [b] neutral range; assay type: physicochemical; settings: HPLC; for logP[b]: method [b] neutral range; for chromatographic logP: reversed-phase C18 HPLC column, neutral range, pH 7.8
Procedure: as §1
[b] The LC-MS determination in the neutral range is effected at pH 7.8 with 0.001 molar aqueous ammonium hydrogencarbonate solution and acetonitrile as eluents; linear gradient from 10% acetonitrile to 95% acetonitrile.

[3] = pH 2.7, HPLC method [a], read-out: logP[a]
[4] = pH 2.7, HPLC, pH 2.7, read-out: log P[a]

Compound | logP[a] [1] | efficacy (Tetranychus urticae; application rate of 500 g/ha) [%] | logP[b] [2] | chromatographic logP [1, 3] | chromatographic logP [1, 4] | pest or weed control at 500 g/ha (Tetranychus urticae; application rate of 500 g/ha) [%] | chromatographic logP [2] | efficacy (Tetranychus urticae; application rate of 100 g/ha) [%]
CCn1c([S+](C)[O-])nn(-c2cc(SCC(F)(F)F)c(C)cc2F)c1=O (centres unmarked) [Example 240] | 2.53 | 100 | 2.46 | – | – | – | – | –
CC[S+]([O-])c1nn(-c2cc(SCC(F)(F)F)c(C)cc2F)c(=O)n1C (centres unmarked) [Example 243, 5-(Ethylsulphinyl)-2-{2-fluoro-4-methyl-5-[(2,2,2-trifluoroethyl)sulphanyl]phenyl}-4-methyl-2,4-dihydro-3H-1,2,4-triazol-3-one] | – | – | – | 2.55 | 2.55 | 100 | 2.51 | –
CC[S+]([O-])c1nn(-c2cc([S+]([O-])CC(F)(F)F)c(C)cc2F)c(=O)n1C (centres unmarked) [Example 244, 5-(Ethylsulphinyl)-2-{2-fluoro-4-methyl-5-[(2,2,2-trifluoroethyl)sulphinyl]phenyl}-4-methyl-2,4-dihydro-3H-1,2,4-triazol-3-one] | – | – | – | 1.69 | 1.69 | 100 | 1.65 | –
CCC[S+]([O-])c1nn(-c2cc([S+]([O-])CC(F)(F)F)c(C)cc2F)c(=O)n1C (centres unmarked) [Example 246] | 1.99 | 100 | 1.95 | – | – | – | – | –
Cc1cc(F)c(-n2nc([S+]([O-])CC3CC3)n(C)c2=O)cc1SCC(F)(F)F (centres unmarked) [Example 247] | 2.94 | 100 | 2.85 | – | – | – | – | –
Cc1cc(F)c(-n2nc([S+]([O-])CC3CC3)n(C)c2=O)cc1[S+]([O-])CC(F)(F)F (centres unmarked) [Example 248] | 2.03 | 100 | 1.98 | – | – | – | – | –
C=CCn1c([S+]([O-])C(C)C)nn(-c2cc([S+]([O-])CC(F)(F)F)c(C)cc2F)c1=O (centres unmarked) [Example 249] | 2.32 | 90 | 2.26 | – | – | – | – | –
Cc1cc(F)c(-n2nc([S+]([O-])Cc3ccccc3)n(C)c2=O)cc1[S+]([O-])CC(F)(F)F (centres unmarked) [Example 250] | 2.34 | 100 | 2.29 | – | – | – | – | –
CCC[S+]([O-])c1nn(-c2cc([S+]([O-])CC(F)(F)F)c(C)cc2F)c(=O)n1CC (centres unmarked) [Example 251] | 2.22 | 100 | 2.18 | – | – | – | – | –
CCn1c([S+]([O-])CC)nn(-c2cc([S+]([O-])CC(F)(F)F)c(C)cc2F)c1=O (centres unmarked) [Example 252] | 1.90 | 100 | 1.87 | – | – | – | – | –
Cc1cc(F)c(-n2nc(SCC(F)(F)F)n(C3CC3)c2=O)cc1SCC(F)(F)F [Example 254] | 3.89 | 90 | 3.84 | – | – | – | – | –
Cc1cc(F)c(-n2nc(SCC(F)(F)F)n(C3CC3)c2=O)cc1[S+]([O-])CC(F)(F)F (centres unmarked) [Example 255] | 2.93 | 100 | 2.89 | – | – | – | – | –
Cc1cc(F)c(-n2nc(SCC(F)F)n(C3CC3)c2=O)cc1[S+]([O-])CC(F)(F)F (centres unmarked) [Example 256] | 2.73 | 90 | 2.69 | – | – | – | – | –
Cc1cc(F)c(-n2nc(SCC(F)F)n(C3CC3)c2=O)cc1SCC(F)(F)F [Example 258] | 3.71 | 90 | 3.75 | – | – | – | – | –
CSc1nn(-c2cc(SCC(F)(F)F)c(C)cc2F)c(=O)n1C1CC1 [Example 259] | 3.56 | 100 | 3.60 | – | – | – | – | –
CSc1nn(-c2cc([S+]([O-])CC(F)(F)F)c(C)cc2F)c(=O)n1C (centres unmarked) [Example 260] | 2.07 | 100 | 2.03 | – | – | – | – | –
CCSc1nn(-c2cc(SCC(F)(F)F)c(C)cc2F)c(=O)n1C1CC1 [Example 261] | 3.99 | 100 | 4.03 | – | – | – | – | –
CCSc1nn(-c2cc([S+]([O-])CC(F)(F)F)c(C)cc2F)c(=O)n1C1CC1 (centres unmarked) [Example 262] | 2.81 | 100 | 2.76 | – | – | – | – | –
Cc1cc(F)c(-n2nc(SC(F)(F)F)n(C3CC3)c2=O)cc1SCC(F)(F)F [Example 263] | 4.08 | – | 4.01 | – | – | – | – | 100
Cc1cc(F)c(-n2nc(SC(F)(F)F)n(C3CC3)c2=O)cc1[S+]([O-])CC(F)(F)F (centres unmarked) [Example 264] | 3.05 | 100 | 2.98 | – | – | – | – | –
CCCSc1nn(-c2cc(SCC(F)(F)F)c(C)cc2F)c(=O)n1C1CC1 [Example 265] | 4.41 | 100 | 4.32 | – | – | – | – | –
CCCSc1nn(-c2cc([S+]([O-])CC(F)(F)F)c(C)cc2F)c(=O)n1C1CC1 (centres unmarked) [Example 266] | 3.24 | 100 | 3.17 | – | – | – | – | –

Compound | logP[a] [1] | efficacy (Tetranychus urticae; application rate of 500 g/ha) [%] | logP[b] [2] | chromatographic logP [1, 3] | chromatographic logP [1, 4] | pest or weed control at 500 g/ha (Tetranychus urticae; application rate of 500 g/ha) [%] | chromatographic logP [2] | efficacy (Tetranychus urticae; application rate of 100 g/ha) [%]
Cc1cc(F)c(-n2nc(SC(C)C)n(C3CC3)c2=O)cc1[S+]([O-])CC(F)(F)F (centres unmarked) [Example 267] | 3.19 | 100 | 3.12 | – | – | – | – | –
Cc1cc(F)c(-n2nc(SC(C)C)n(C3CC3)c2=O)cc1SCC(F)(F)F [Example 268] | 4.37 | 100 | 4.28 | – | – | – | – | –
CCn1c(SC)nn(-c2cc(SCC(F)(F)F)c(C)cc2F)c1=O [Example 269] | 3.53 | 100 | 3.44 | – | – | – | – | –
C=CCn1c(SC)nn(-c2cc(SCC(F)(F)F)c(C)cc2F)c1=O [Example 271] | 3.61 | 100 | 3.58 | – | – | – | – | –
CCSc1nn(-c2cc(SCC(F)(F)F)c(C)cc2F)c(=O)n1C [Example 273, 5-(Ethylsulphanyl)-2-{2-fluoro-4-methyl-5-[(2,2,2-trifluoroethyl)sulphanyl]phenyl}-4-methyl-2,4-dihydro-3H-1,2,4-triazol-3-one] | – | – | – | 3.51 | 3.51 | 100 | 3.44 | –
CCSc1nn(-c2cc([S+]([O-])CC(F)(F)F)c(C)cc2F)c(=O)n1C (centres unmarked) [Example 274, 5-(Ethylsulphanyl)-2-{2-fluoro-4-methyl-5-[(2,2,2-trifluoroethyl)sulphinyl]phenyl}-4-methyl-2,4-dihydro-3H-1,2,4-triazol-3-one] | – | – | – | 2.42 | 2.42 | 100 | 2.36 | –
Cc1cc(F)c(-n2nc(SC(C)C)n(C)c2=O)cc1[S+]([O-])CC(F)(F)F (centres unmarked) [Example 275] | 2.73 | 100 | 2.68 | – | – | – | – | –
Cc1cc(F)c(-n2nc(SC(C)C)n(C)c2=O)cc1SCC(F)(F)F [Example 276] | 3.86 | 100 | 3.80 | – | – | – | – | –
CCCSc1nn(-c2cc(SCC(F)(F)F)c(C)cc2F)c(=O)n1C [Example 277] | 3.90 | 100 | 3.86 | – | – | – | – | –
CCCSc1nn(-c2cc([S+]([O-])CC(F)(F)F)c(C)cc2F)c(=O)n1C (centres unmarked) [Example 278] | 2.80 | 100 | 2.74 | – | – | – | – | –
Cc1cc(F)c(-n2nc(SCC3CC3)n(C)c2=O)cc1SCC(F)(F)F [Example 279] | 3.91 | 100 | 3.83 | – | – | – | – | –
Cc1cc(F)c(-n2nc(SCC(F)(F)F)n(C)c2=O)cc1SCC(F)(F)F [Example 281] | 3.53 | 100 | 3.45 | – | – | – | – | –
Cc1cc(F)c(-n2nc(SC(F)(F)F)n(C)c2=O)cc1SCC(F)(F)F [Example 283] | 3.71 | 100 | 3.64 | – | – | – | – | –
Cc1cc(F)c(-n2nc(SCc3ccccc3)n(C)c2=O)cc1SCC(F)(F)F [Example 286] | 4.12 | 100 | 4.03 | – | – | – | – | –
CCCSc1nn(-c2cc(SCC(F)(F)F)c(C)cc2F)c(=O)n1CC [Example 288] | 3.18 | 100 | 3.13 | – | – | – | – | –
C=CCSc1nn(-c2cc(SCC(F)(F)F)c(C)cc2F)c(=O)n1C [Example 290] | 3.62 | 100 | 3.56 | – | – | – | – | –
CCSc1nn(-c2cc(SCC(F)(F)F)c(C)cc2F)c(=O)n1CC [Example 292] | 3.91 | 100 | 3.86 | – | – | – | – | –
Cc1cc(F)c(-n2nc(Br)n(C3CC3)c2=O)cc1SCC(F)(F)F [Example 294] | 3.48 | 100 | 3.38 | – | – | – | – | –
Cc1ccc(-n2nnn(C)c2=O)cc1SCC(F)(F)F [Example 296] | 3.07 | 90 | 3.04 | – | – | – | – | –
Cc1cc(C)c(-n2nnn(C(C)C)c2=O)cc1SCC(F)(F)F [Example 298] | 3.81 | 100 | 3.78 | – | – | – | – | –
Cc1cc(F)c(-n2nnn(-c3ccc(Cl)cc3)c2=O)cc1SCC(F)(F)F [Example 306, 1-(4-Chlorophenyl)-4-{2-fluoro-4-methyl-5-[(2,2,2-trifluoroethyl)sulphanyl]phenyl}-1,4-dihydro-5H-tetrazol-5-one] | – | – | – | 4.75 | 4.75 | 100 | 4.59 | –
